Experiments:
[1] = test system: Rattus norvegicus; assay: Antianxiety activity in Long-Evans rat assessed as reduction in motor activity at 10 mg/kg, po after 2 hrs relative to vehicle-treated control; assay type: functional; set-up: scale not given: the % may be the effect or the level left
[2] = test system: Rattus norvegicus; assay: Antipsychotic activity in rat assessed as reduction of methamphetamine-induced hyperactivity at 5 mg/kg, po administered prior to methamphetamine challenge relative to vehicle-treated control; assay type: functional; set-up: scale not given: the % may be the effect or the level left
[3] = species: Rattus norvegicus; assay: animal or person; assay type: functional; conditions: Charles River, route oral
Description: Antidiarrheal activity in Charles River rat assessed as inhibition of castor oil-induced diarrhea by measuring protected animals at 0.5 mg/kg, po administered 1 hr prior to castor oil challenge measured after 1 hr relative to vehicle-treated control

[4] = test system: Rattus norvegicus; assay: Analgesic activity in po dosed Sprague-Dawley rat after 15 to 90 mins by tail flick test; assay type: functional
[5] = Acute toxicity in po dosed mouse; assay type: organism-based; conditions: in vivo
[6] = test system: Felis catus; assay: Hypnotic activity in cat assessed as increase in non-REM sleep time at 0.5 mg/kg administered orally through diet measured for 12 hrs by EEG analysis; assay type: functional; conditions: route oral
[7] = test system: Canis familiaris; assay: Antianxiety activity in po dosed dog assessed as ataxia administered as single dose measured up to 24 hrs; assay type: functional; conditions: Canis lupus familiaris, read-out: MED
[8] = test system: Mus musculus; assay: Increase in footshock-induced fighting behavior in albino BALB/cJ mouse at 5 mg/kg, po after 30 to 90 mins; assay type: functional
[9] = test system: Felis catus; assay: Hypnotic activity in cat assessed as increase in total sleep time at 0.5 mg/kg administered orally through diet measured for 12 hrs by EEG analysis; assay type: functional; conditions: route oral
[10] = test system: Rattus norvegicus; assay: Antianxiety activity in Long-Evans rat assessed as reduction in motor activity at 5 mg/kg, po after 2 hrs relative to vehicle-treated control; assay type: functional; set-up: scale not given: the % may be the effect or the level left
[11] = test system: Mus musculus; assay: Analgesic activity in po dosed mouse assessed as inhibition of acetic acid-induced writhing administered 30 mins prior to acetic acid challenge measured after 5 mins for 20 mins; assay type: functional
[12] = test system: Rattus norvegicus; assay: Antipsychotic activity in rat assessed as reduction of methamphetamine-induced hyperactivity at 1 mg/kg, po administered prior to methamphetamine challenge relative to vehicle-treated control; assay type: functional; set-up: scale not given: the % may be the effect or the level left
[13] = test system: Rattus norvegicus; assay: Antianxiety activity in Long-Evans rat assessed as reduction in motor activity at 1 mg/kg, po after 2 hrs relative to vehicle-treated control; assay type: functional; set-up: scale not given: the % may be the effect or the level left
[14] = test system: Rattus norvegicus; assay: Antipsychotic activity in rat assessed as reduction of methamphetamine-induced hyperactivity at 2.5 mg/kg, po administered prior to methamphetamine challenge relative to vehicle-treated control; assay type: functional; set-up: scale not given: the % may be the effect or the level left
[15] = test system: Rattus norvegicus; assay: Antihypertensive activity in spontaneously hypertensive rat model assessed as reduction in blood pressure at 5 mg/kg, po after 24 hrs; assay type: functional; set-up: scale not given: the % may be the effect or the level left
[16] = test system: Rattus norvegicus; assay: Antidiarrheal activity in Charles River rat assessed as inhibition of castor oil-induced diarrhea by measuring protected animals at 0.4 mg/kg, po administered 1 hr prior to castor oil challenge measured after 1 hr relative to vehicle-treated control; assay type: functional
[17] = test system: Rattus norvegicus; assay: Antidiarrheal activity in Charles River rat assessed as inhibition of castor oil-induced diarrhea by measuring protected animals at 0.8 mg/kg, po administered 1 hr prior to castor oil challenge measured after 1 hr relative to vehicle-treated control; assay type: functional
[18] = test system: Rattus norvegicus; assay: Antidiarrheal activity in Charles River rat assessed as inhibition of castor oil-induced diarrhea by measuring protected animals at 0.1 mg/kg, po administered 1 hr prior to castor oil challenge measured after 1 hr relative to vehicle-treated control; assay type: functional
[19] = test system: Rattus norvegicus; assay: Antihypertensive activity in spontaneously hypertensive rat model assessed as reduction in blood pressure at 5 mg/kg, po after 3 hrs; assay type: functional; set-up: scale not given: the % may be the effect or the level left
[20] = test system: Rhesus monkey; assay: Antianxiety activity in po dosed rhesus monkey assessed as antiagressive behavior measured every hour post dosing; assay type: functional; conditions: Macaca mulatta, read-out: MED
[21] = test system: Mus musculus; assay: Antianxiety activity in albino BALB/cJ mouse assessed as reduction in footshock-induced fighting behavior at 10 mg/kg, po after 30 to 90 mins; assay type: functional; set-up: scale not given: the % may be the effect or the level left
[22] = species: Rattus norvegicus; assay: animal or person; conditions: Charles River, po, read-out: INH
Description: Antidiarrheal activity in Charles River rat assessed as inhibition of castor oil-induced diarrhea by measuring protected animals at 2 mg/kg, po administered 1 hr prior to castor oil challenge measured after 1 hr relative to vehicle-treated control

[23] = species: Rattus norvegicus; assay: animal or person; assay type: functional; conditions: Charles River, route oral; remark: listed apart in the source
Description: Antidiarrheal activity in Charles River rat assessed as inhibition of castor oil-induced diarrhea by measuring protected animals at 1 mg/kg, po administered 1 hr prior to castor oil challenge measured after 1 hr relative to vehicle-treated control

## C#CCN1CCC2=C(C1)c1c(O)cc(C(C)C(C)CCc3ccc(F)cc3)cc1OC2(C)C (stereo not drawn)
[1]
  Activity: 73%
[2]
  Activity: 53%
[3]
  inhibition in vivo at 0.5 mg/kg: 0%
[4]
  ED50: 8.3 mg/kg
[5]
  LD50: ≥ 1000 mg/kg
[6]
  Time: 60 min
[7]
  minimal effective dose: 10 mg/kg
[8]
  Activity: 30%
[9]
  Time: 58 min
[10]
  Activity: 59%
[11]
  ED50: 4.4 mg/kg
[12]
  Activity: 23%

## CC1CCC2=C(C1)c1c(OC(=O)CCCN3CCCCC3)cc(C(C)CCCc3ccc(F)cc3)cc1OC2(C)C.Cl (stereo not drawn)
[13]
  Activity: 38%
[14]
  Activity: 50%
[15]
  Activity: 19%
[1]
  Activity: 95%
[2]
  Activity: 75%
[4]
  ED50: 1.46 mg/kg
[5]
  LD50: ≥ 1000 mg/kg
[6]
  Time: 73 min
[16]
  inhibition in vivo at 0.4 mg/kg: 70%
[7]
  minimal effective dose: 0.2 mg/kg
[17]
  inhibition in vivo at 0.8 mg/kg: 90%
[18]
  inhibition in vivo at 0.1 mg/kg: 10%
[9]
  Time: 50 min
[19]
  Activity: 25%
[10]
  Activity: 72%
[20]
  minimal effective dose: 1 mg/kg
[21]
  Activity: 73%
[11]
  ED50: 1.76 mg/kg

## CN1CC[C@]23c4c5ccc(O)c4O[C@H]2[C@@H](O)C=C[C@H]3[C@H]1C5
[22]
  inhibition in vivo at 2 mg/kg: 50%
[3]
  inhibition in vivo at 0.5 mg/kg: 0%
[23]
  inhibition in vivo at 1 mg/kg: 30%

From ChEMBL document CHEMBL3272295, “Drugs derived from cannabinoids. 5. delta6a,10a-Tetrahydrocannabinol and heterocyclic analogs containing aromatic side chains” (J Med Chem, 1976)
